Experimental data published in patent US5100907A, “Hydantoin esters” (Lonza, Inc., priority 1990, dated 1992).

Assays:
[1] = Total available formaldehyde (TF) and free formaldehyde (FF) levels of esters (I); format: physicochemical; conditions: for FF (free formaldehyde) / TF (total available formaldehyde): neat ester, Table 3
Source text: Thus, whether the formaldehyde content is chemically bonded to the hydantoin moiety or is free formaldehyde (FF) in solution, e.g., in water as formaldehyde or methylene glycol [CH2 (OH)2 ], it remains available for biocidal action. Due to this direct relation, the weight percent TF in a given preparation of the ester (I), e.g. a cosmetic formulation, can be predicted accurately, regardless of the level of dilution.

[2] = Solubilities of esters in typical solvents / appearance of samples in water; format: physicochemical; conditions: 25° C.
[3] = Dispersion stability tests; format: physicochemical; conditions: for stability of dispersions in water: 0.5%, and even 5% active levels
Protocol: The dispersion stability tests were performed on the esters (I) to determine the extent each was able to disperse itself in an aqueous medium.
The dispersions were prepared by homogenizing a mixture of the test ester and water, after which repeated examination of the sample was effected for a period of 55 days. This test method is fully indicative of the dispersibility of these esters (I).
The dispersion tests were performed with the esters at 0.5% and 5.0% active levels in water, prepared by combining the test ester with distilled water, and homogenizing the mixture for one to three minutes, via a Kika-Werk Ultra-Turrax S D-45 homogenizer. The dispersions were poured into an eight ounce flint jar, capped, and periodically examined over a 55 day period.

[4] = system: Aspergillus niger; assay: Antimicrobial study against Aspergillus niger (mold); format: cell-based; conditions: methylolated C8/10 10,800 ppm, methylolated lauric 11,400 ppm, DMDMH 3,000 ppm, others 14,700 ppm
Protocol: (§1) The antimicrobial properties of typical esters (I) and (Ia) were tested by minimum inhibitory concentration (MIC) tests, along with certain known substances, against […] strains of organisms: a mold, Aspergillus niger; a gram-positive bacteria, Staphylococcus aureus; and two gram-negative bacteria, Escherichia coli and Pseudomonas aeruginosa. […] These tests were used to determine any effect on biocidal activity of the varying chain length of the ester.
(§2) The known substances, on which identical tests were also performed, included the biocide, dimethyloldimethylhydantoin or DMDMH (iv), and a series of three surfactants, i.e., the three common emulsifiers, sodium lauryl sulfate (SLS); ethylene glycol distearate (EGDS), in the form of the commercial product PEGOSPERSE 50 DS (Lonza Inc.); and polyoxyethylene 20 sorbitan monoleate (POE 20 SMO), in the form of the commercial product GLYCOSPERSE 0 20 (Lonza Inc.).
(§3) The tests entailed contaminating a preexisting micro-colony with a known quantity (ppm, concentration) of test material. Each colony was then examined periodically over a one week period. […] A test was deemed non-efficacious when there was no decrease in colony size. In an effort to avoid any possible solvent effect, the micro-study was conducted in a totally aqueous solvent system without use of any other solvent.

[5] = system: Staphylococcus aureus; assay: Antimicrobial study against Staphylococcus aureus (gram-positive bacteria); format: cell-based; conditions: methylolated C8/10 10,800 ppm, methylolated lauric 11,400 ppm, DMDMH 3,000 ppm, others 14,700 ppm
Protocol: as §1, §2, §3

[6] = system: Escherichia coli; assay: Antimicrobial study against Escherichia coli (gram-negative bacteria); format: cell-based; conditions: methylolated C8/10 10,800 ppm, methylolated lauric 11,400 ppm, DMDMH 3,000 ppm, others 14,700 ppm
Protocol: as §1, §2, §3

[7] = system: Staphylococcus species b; assay: Preservative challenge test against Staphylococcus species b; format: cell-based; conditions: end of 14 day period
Protocol: Microbiological challenge tests were also conducted with the lauric and oleic esters (I), representing molecules having C12 and C18 aliphatic fatty acid chain length moieties, respectively.
These preservative challenge tests were used to determine the biocidal performance of these two esters (I) in aqueous solution and dispersion formulations inoculated with a given one of two test organisms, previously isolated from a contaminated calcium carbonate (CaCO3) dispersion, i.e. gram-positive bacteria, designated Staphylococcus species a and Staphylococcus species b, as compared to three known biocides or preservatives, designated as DANTOGARD (trademark), Tektamer 38 (1,2-dibromo-2,4-dicyanobutane) and Nuodex PMA-18.
The solution formulation was represented by the inclusion of the test sample as preservative system in deionized water, and the dispersion formulation was represented by the inclusion of the test sample as preservative system in a CaCO3 aqueous dispersion (identified as Hydrocarb 60), the latter typifying a dispersed pigment medium, e.g. as used in a paint or other industrial dispersion or slurry. The antimicrobial activity of the test samples was evaluated at individually selective concentrations.
All these liquid samples were stored at room temperature until the start of the tests. The test organisms were maintained or nutrient agar at 4° C. and subcultured in nutrient broth (Difco), and a 24 hour culture incubated at 35° C. was used for the testing over a challenge test time period of 14 days.
The test formulations were prepared per a standardized procedure, by placing 20 ml aliquots of the stored sample into sterile test tubes, and then adding 0.1 ml of a standardized 10^6 suspension of a 24 hour culture in nutrient broth. Plate counts were taken immediately to determine the initial level of the microbial population, and the containers were incubated at 20°-25° C. Plate counts were retaken at 1, 3, 7 and 14 days, with the final reductions being calculated from the 14 days results.

[8] = 1% active concentration in water

| Compound | FF (free formaldehyde) [1] [Wt. %] | TF (total available formaldehyde) [1] [Wt. %] | Solubility in isopropyl alcohol [2] | Solubility in mineral oil [2] | dispersion quality, decreasing order of rank [3] | stability of dispersions in water [3] | Colony Count ([4]; Day 0) | Colony Count ([4]; Day 1) | Colony Count ([4]; Day 2) | Colony Count ([4]; Day 3) | Colony Count ([4]; Day 7) | Colony Count ([5]; Day 0) | Colony Count ([5]; Day 1) | Colony Count ([5]; Day 2) | Colony Count ([5]; Day 3) | Colony Count ([5]; Day 7) | Colony Count ([6]; Day 0) | Colony Count ([6]; Day 1) | Colony Count ([6]; Day 2) | Colony Count ([6]; Day 3) | also measured |
| --- | --- | --- | --- | --- | --- | --- | --- | --- | --- | --- | --- | --- | --- | --- | --- | --- | --- | --- | --- | --- | --- |
| CCCCCCCCCCCC(=O)OCCN1C(=O)N(CO)C(=O)C1(C)C [Methylolated Lauric Ester, 2-(3-hydroxymethyl-5,5-dimethyl-1,3-diazacyclopentane-2,4-dion-1-yl)-ethylester of lauric acid] | 0.2 | 8.0 | S (>10 g/100 g Solvent) | S (>10 g/100 g Solvent) | isostearate>oleate>cocoate>laurate>C8/10ester>>stearate>acetate | stable for weeks | 400 × 1,000 | 2 × 1,000 | < 0.01 × 1,000 | < 0.01 × 1,000 | < 0.01 × 1,000 | TNC | 4,000 × 1,000 | < 0.01 × 1,000 | < 0.01 × 1,000 | < 0.01 × 1,000 | TNC | TNC | < 0.01 × 1,000 | < 0.01 × 1,000 | Colony Count ([6]; Day 7): < 0.01 × 1,000; effectiveness as preservative ([7]; water): effective as preservatives in water |
| CCCCCCCC/C=C\CCCCCCCC(=O)OCCN1C(=O)N(CO)C(=O)C1(C)C [Methylolated Oleic Ester, 2-(3-hydroxymethyl-5,5-dimethyl-1,3-diazacyclopentane-2,4-dion-1-yl)-ethylester of oleic acid] | 0.2 | 6.5 | S (>10 g/100 g Solvent) | S (>10 g/100 g Solvent) | isostearate>oleate>cocoate>laurate>C8/10ester>>stearate>acetate | stable for weeks | 2,000 × 1,000 | 0.5 × 1,000 | < 0.01 × 1,000 | < 0.01 × 1,000 | < 0.01 × 1,000 | TNC | 4,200 × 1,000 | < 0.01 × 1,000 | < 0.01 × 1,000 | < 0.01 × 1,000 | 4,000 × 1,000 | < 0.01 × 1,000 | < 0.01 × 1,000 | < 0.01 × 1,000 | Calculated TF [1, 8]: 0.065 Wt. %; Determined FF [1, 8]: 0.0112 Wt. %; Ratio FF/TF [1, 8]: 0.172; TF ([1]; at a concentration of 1.0%): 0.4 wt. %; Colony Count ([6]; Day 7): < 0.01 × 1,000; effectiveness as preservative ([7]; calcium carbonate aqueous dispersions): effective as a preservative in calcium carbonate aqueous dispersions; effectiveness as preservative ([7]; water): effective as preservatives in water |
